Source: patent US8871753B2, “Macrocyclic compounds and their use as kinase inhibitors” (Incyte Corporation, priority 2008, dated 2014)
Structures can show the parent of a compound that is named as a salt. Where two headings read alike, the source gives them in different places.

Tests used:
Format in all cases: biochemical
[1] = molecular target: T1, human JAK1 (a.a. 837-1142) (Homo sapiens, UniProt P23458); assay: In vitro JAK kinase assay (HTRF, phosphorylation of a biotinylated peptide), JAK1; conditions: read-out: JAK1 IC50
T1 construct: human JAK1 (a.a. 837-1142); His tag (N); made in house; host or cells: insect cells (baculovirus)
Outline: (§1)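 Kinase activity was measured as phosphorylation of a biotinylated peptide, with ATP at 90 μM for JAK1, 30 μM for JAK2 and 3 μM for JAK3. Reactions ran 1 hr at room temperature, were stopped with EDTA plus SA-APC and Eu-Py20, and were read by HTRF after 40 minutes of antibody binding.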

TYK2 = TYK2 (Homo sapiens, UniProt P29597); assay: TYK2 kinase inhibition (Table A1)
[2] = molecular target: T2, human JAK2 (a.a. 828-1132) (Homo sapiens, UniProt O60674); assay: In vitro JAK kinase assay (HTRF, phosphorylation of a biotinylated peptide), JAK2
T2 construct: JAK2 (a.a. 828-1132); His tag (N); made in house; host or cells: insect cells (baculovirus)
Outline: as §1

[3] = molecular target: T3, human JAK3 (a.a. 781-1124) (Homo sapiens, UniProt P52333); assay: In vitro JAK kinase assay (HTRF, phosphorylation of a biotinylated peptide), JAK3
T3 construct: JAK3 (a.a. 781-1124); His tag (N); made in house; host or cells: insect cells (baculovirus)
Outline: as §1

[4] = molecular target: T4, Recombinant Human Anaplastic Lymphoma Kinase (Homo sapiens, UniProt Q9UM73); assay: ALK HTRF kinase assay
T4 construct: purchased Invitrogen, Carlsbad, Calif
Outline: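 Biotinylated peptide substrate, recombinant human ALK; detection via europium-chelate antibody to phosphotyrosine paired with streptavidin-APC. Potency expressed as IC50 from four-parameter curve fitting.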

[5] = Table B1, cells without percent sign
[6] = method AA1 (90 μM ATP) or AA2 (1000 μM ATP), not stated per value
[7] = method AA1 (30 μM ATP) or AA2 (1000 μM ATP), not stated per value
[8] = method AA1 (3 μM ATP) or AA2 (1000 μM ATP), not stated per value
[9] = compound at 500 nM or 1 mM, 90 μM ATP
[10] = compound at a concentration of 500 nM or 1 mM (not specified), cells shown as percentage

Chain of TYK2 (P29597 whole entry): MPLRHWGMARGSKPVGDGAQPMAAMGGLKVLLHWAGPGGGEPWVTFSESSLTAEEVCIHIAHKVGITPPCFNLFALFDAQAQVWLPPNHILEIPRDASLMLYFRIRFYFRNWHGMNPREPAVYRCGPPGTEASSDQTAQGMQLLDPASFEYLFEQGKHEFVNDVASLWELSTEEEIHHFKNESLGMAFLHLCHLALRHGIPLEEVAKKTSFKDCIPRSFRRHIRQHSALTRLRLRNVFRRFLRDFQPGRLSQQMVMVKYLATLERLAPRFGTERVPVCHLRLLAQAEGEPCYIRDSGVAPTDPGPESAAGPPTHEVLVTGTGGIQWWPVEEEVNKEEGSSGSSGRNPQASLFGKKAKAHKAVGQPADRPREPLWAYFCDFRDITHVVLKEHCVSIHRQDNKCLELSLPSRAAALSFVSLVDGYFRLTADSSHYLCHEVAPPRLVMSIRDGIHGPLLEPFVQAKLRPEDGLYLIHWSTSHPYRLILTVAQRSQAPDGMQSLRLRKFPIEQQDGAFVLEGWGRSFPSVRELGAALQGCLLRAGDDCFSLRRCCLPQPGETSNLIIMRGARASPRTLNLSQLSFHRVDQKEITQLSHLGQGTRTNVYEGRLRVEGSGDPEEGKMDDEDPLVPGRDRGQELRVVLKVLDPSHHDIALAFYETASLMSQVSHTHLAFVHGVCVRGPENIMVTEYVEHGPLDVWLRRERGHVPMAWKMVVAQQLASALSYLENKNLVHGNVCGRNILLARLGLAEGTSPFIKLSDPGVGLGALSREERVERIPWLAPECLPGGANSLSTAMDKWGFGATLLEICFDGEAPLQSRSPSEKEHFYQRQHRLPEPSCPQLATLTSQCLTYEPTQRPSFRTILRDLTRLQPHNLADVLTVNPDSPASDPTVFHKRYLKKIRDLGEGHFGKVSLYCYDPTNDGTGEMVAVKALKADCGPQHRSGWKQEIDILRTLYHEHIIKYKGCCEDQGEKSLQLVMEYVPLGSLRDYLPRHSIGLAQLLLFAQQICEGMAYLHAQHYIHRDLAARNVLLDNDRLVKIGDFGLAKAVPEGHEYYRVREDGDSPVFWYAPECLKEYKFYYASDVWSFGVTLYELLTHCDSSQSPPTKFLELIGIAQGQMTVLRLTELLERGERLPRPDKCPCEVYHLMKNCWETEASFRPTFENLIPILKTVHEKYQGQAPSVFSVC
T2 sequence (O60674 828-1132): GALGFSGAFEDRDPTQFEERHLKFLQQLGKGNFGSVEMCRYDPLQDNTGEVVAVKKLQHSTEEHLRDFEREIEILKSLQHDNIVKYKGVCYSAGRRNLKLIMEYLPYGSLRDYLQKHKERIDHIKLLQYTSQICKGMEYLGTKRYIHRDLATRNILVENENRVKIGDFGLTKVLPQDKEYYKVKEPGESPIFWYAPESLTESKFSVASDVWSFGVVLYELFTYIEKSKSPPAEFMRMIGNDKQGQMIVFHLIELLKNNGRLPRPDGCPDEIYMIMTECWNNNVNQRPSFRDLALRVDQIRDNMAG
T4 sequence (Q9UM73 19-1620): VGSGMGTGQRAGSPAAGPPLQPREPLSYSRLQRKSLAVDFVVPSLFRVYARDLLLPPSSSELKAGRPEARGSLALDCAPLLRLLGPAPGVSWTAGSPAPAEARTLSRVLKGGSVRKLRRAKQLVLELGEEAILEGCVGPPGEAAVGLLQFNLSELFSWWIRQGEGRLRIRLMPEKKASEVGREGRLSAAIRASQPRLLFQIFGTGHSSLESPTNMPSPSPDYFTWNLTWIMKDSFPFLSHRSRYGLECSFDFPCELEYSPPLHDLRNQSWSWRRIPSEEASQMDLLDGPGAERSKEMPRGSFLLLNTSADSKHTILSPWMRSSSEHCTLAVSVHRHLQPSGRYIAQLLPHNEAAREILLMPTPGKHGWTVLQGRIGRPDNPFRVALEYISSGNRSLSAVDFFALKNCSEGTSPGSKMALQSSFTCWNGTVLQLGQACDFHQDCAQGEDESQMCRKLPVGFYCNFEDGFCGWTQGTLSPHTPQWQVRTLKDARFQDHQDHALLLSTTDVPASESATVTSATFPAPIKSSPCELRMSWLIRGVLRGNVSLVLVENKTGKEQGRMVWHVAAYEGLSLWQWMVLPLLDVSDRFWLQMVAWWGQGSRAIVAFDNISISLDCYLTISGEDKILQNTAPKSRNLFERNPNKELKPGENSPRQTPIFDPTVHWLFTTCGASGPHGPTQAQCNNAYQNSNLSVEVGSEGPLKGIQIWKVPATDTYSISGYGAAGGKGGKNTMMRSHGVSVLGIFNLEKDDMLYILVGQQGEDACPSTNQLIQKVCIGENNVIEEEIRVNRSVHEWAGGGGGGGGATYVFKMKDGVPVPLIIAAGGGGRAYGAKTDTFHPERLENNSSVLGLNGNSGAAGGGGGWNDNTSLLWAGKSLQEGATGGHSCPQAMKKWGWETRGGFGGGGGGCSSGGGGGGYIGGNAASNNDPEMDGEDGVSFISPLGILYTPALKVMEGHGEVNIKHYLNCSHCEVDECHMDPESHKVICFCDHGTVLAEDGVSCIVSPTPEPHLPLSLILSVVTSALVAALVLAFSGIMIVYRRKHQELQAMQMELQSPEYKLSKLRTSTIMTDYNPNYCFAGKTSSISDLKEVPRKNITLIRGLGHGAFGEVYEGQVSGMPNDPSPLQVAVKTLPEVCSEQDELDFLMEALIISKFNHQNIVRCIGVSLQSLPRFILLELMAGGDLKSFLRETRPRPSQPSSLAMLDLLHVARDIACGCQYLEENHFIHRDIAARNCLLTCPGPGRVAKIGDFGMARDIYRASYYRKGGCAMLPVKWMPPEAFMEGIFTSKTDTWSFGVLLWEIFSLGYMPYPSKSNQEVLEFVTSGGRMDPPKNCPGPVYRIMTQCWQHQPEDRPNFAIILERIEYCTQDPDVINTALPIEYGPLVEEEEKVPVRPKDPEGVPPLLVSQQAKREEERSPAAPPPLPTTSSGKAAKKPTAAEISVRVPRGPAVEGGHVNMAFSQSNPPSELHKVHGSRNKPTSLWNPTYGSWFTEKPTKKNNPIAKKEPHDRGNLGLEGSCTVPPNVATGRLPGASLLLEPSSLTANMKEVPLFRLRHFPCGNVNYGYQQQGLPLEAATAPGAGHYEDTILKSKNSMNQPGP
T1 sequence (P23458 849-1154): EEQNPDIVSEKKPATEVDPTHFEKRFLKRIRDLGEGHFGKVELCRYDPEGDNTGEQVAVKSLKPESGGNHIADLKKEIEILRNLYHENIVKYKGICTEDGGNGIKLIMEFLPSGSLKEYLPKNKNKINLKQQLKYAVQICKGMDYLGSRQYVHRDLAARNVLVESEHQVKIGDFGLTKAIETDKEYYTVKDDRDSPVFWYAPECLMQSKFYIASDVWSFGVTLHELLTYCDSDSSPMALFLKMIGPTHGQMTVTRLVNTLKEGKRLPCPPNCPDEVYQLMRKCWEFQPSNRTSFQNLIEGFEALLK
T3 sequence (P52333 781-1124): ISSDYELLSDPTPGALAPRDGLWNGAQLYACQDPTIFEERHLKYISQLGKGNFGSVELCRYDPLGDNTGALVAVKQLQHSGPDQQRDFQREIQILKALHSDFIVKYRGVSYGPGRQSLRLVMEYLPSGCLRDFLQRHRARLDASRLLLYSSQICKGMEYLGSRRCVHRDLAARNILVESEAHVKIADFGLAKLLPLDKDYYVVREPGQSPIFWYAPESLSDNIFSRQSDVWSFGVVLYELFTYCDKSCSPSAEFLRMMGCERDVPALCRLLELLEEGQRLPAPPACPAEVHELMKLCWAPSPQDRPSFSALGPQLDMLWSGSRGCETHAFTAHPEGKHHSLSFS

Row | SMILES | IC50 ([1]; Table B1) | IC50 (TYK2; Table B1) | IC50 ([2]; Table B1) | IC50 ([3]; Table B1) | IC50 [1, 6] | IC50 (TYK2) | IC50 [2, 7] | IC50 [3, 8] | ALK % of inhibition at a concentration of 500 nM or 1 mM [4, 9] | further results
1 | O=C(Nc1ccc2cc1CCc1cccc(c1)Nc1ncc(Cl)c(n1)N2)c1cccc(Cl)c1 [Example B42, 3-Chloro-N-[6-chloro-2,4,8,22-tetraazatetracyclo[14.3.1.1(3,7).1(9,13)]docosa-1(20),3(22),4,6,9(21),10,12,16,18-nonaen-12-yl]benzamide hydrochloride] | 1.7 nM | 3.9 nM | 0.75 nM | 7 nM | – | – | – | – | – | IC50 [4, 5]: 310 nM
2 | Cc1cnc2nc1Nc1cccc(c1)/C=C\c1cccc(c1)N2 [Example B1, (14Z)-6-Methyl-2,4,8,22-tetraazatetracyclo[14.3.1.1(3,7).1(9,13)]docosa-1(20),3(22),4,6,9(21),10,12,14,16,18-decaene trifluoroacetate] | 11 nM | 17 nM | 5.1 nM | > 100 nM | – | – | – | – | – | IC50 [4, 5]: 786 nM
3 | O=C(O)c1cc2cc(c1)Nc1nc(ncc1Cl)Nc1cccc(c1)CC2 [Example B6, 6-Chloro-2,4,8,22-tetraazatetracyclo[14.3.1.1(3,7).1(9,13)]docosa-1(20),3(22),4,6,9(21),10,12,16,18-nonaene-11-carboxylic acid trifluoroacetate] | > 1000 nM | > 1000 nM | 800 nM | > 1000 nM | – | – | – | – | – | IC50 [4, 5]: > 1000 nM
4 | N#Cc1ccc(N2CCC(CC(=O)Nc3ccc4cc3CCc3cncc(c3)Nc3ncc(Cl)c(n3)N4)CC2)cc1 [Example A221, N-[6-Chloro-2,4,8,18,22-pentaazatetracyclo[14.3.1.1(3,7).1(9,13)]docosa-1(20),3(22),4,6,9(21),10,12,16,18-nonaen-12-yl]-2-[1-(4-cyanophenyl)piperidin-4-yl]acetamide tris(trifluoroacetate)] | – | – | – | – | 44 nM | > 200 nM | > 200 nM | > 200 nM | 22% | –
5 | O=C(CC1CCN(c2cccc(F)n2)CC1)Nc1ccc2cc1CCc1cncc(c1)Nc1ncc(Cl)c(n1)N2 [Example A181, N-[6-Chloro-2,4,8,18,22-pentaazatetracyclo[14.3.1.1(3,7).1(9,13)]docosa-1(20),3(22),4,6,9(21),10,12,16,18-nonaen-12-yl]-2-[1-(6-fluoropyridin-2-yl)piperidin-4-yl]acetamide tris(trifluoroacetate)] | – | – | – | – | 6.3 nM | 89 nM | 81 nM | > 200 nM | 42% | –
6 | CS(=O)(=O)N1CC[C@@H](NC(=O)Nc2ccc3cc2CCc2cccc(c2)Nc2ncc(Cl)c(n2)N3)C1 [Example B178, N-[6-Chloro-2,4,8,22-tetraazatetracyclo[14.3.1.1(3,7).1(9,13)]docosa-1(20),3(22),4,6,9(21),10,12,16,18-nonaen-12-yl]-N′-[(3R)-1-(methylsulfonyl)pyrrolidin-3-yl]urea trifluoroacetate] | 0.82 nM | 2.6 nM | 1.1 nM | 17 nM | – | – | – | – | – | ALK % of inhibition at a concentration of 500 nM or 1 mM [4, 10]: 24%
7 | COc1cc2cc(c1)Nc1nc(ncc1Cl)Nc1cccc(c1)CC2 [Example A21, 6-Chloro-11-methoxy-2,4,8,22-tetraazatetracyclo[14.3.1.1(3,7).1(9,13)]docosa-1(20),3(22),4,6,9(21),10,12,16,18-nonaene trifluoroacetate] | – | – | – | – | 57 nM | 98 nM | 6.2 nM | 26 nM | 65% | –
8 | Cc1ncoc1C(=O)N1CCC(CN(C)Cc2ccc3cc2CCc2cncc(c2)Nc2ncc(Cl)c(n2)N3)CC1 [Example B347, 1-[6-Chloro-2,4,8,18,22-pentaazatetracyclo[14.3.1.1(3,7).1(9,13)]docosa-1(20),3(22),4,6,9(21),10,12,16,18-nonaen-12-yl]-N-methyl-N-({1-[(4-methyl-1,3-oxazol-5-yl)carbonyl]piperidin-4-yl}methyl)methanamine tris(trifluoroacetate)] | 58 nM | > 400 nM | 371 nM | > 400 nM | – | – | – | – | – | ALK % of inhibition at a concentration of 500 nM or 1 mM ([4]; percentage inhibition of the example compound at a concentration of 500 nM or 1 mM (not specified which)): 45%
9 | O=C(CC1CCN(C(=O)Nc2cccc(F)c2)CC1)Nc1ccc2cc1CCc1cncc(c1)Nc1ncc(Cl)c(n1)N2 [Example A147, 4-(2-{[6-Chloro-2,4,8,18,22-pentaazatetracyclo[14.3.1.1(3,7).1(9,13)]docosa-1(20),3(22),4,6,9(21),10,12,16,18-nonaen-12-yl]amino}-2-oxoethyl)-N-(3-fluorophenyl)piperidine-1-carboxamide bis(trifluoroacetate)] | – | – | – | – | 0.3 nM | 7.4 nM | 1.9 nM | > 100 nM | 46% | –
10 | O=C1CCc2cccc(c2)Nc2nc(ncc2Cl)Nc2cccc1c2 [Example A5, 6-Chloro-2,4,8,23-tetraazatetracyclo[15.3.1.1(3,7).1(9,13)]tricosa-1(21),3(23),4,6,9(22),10,12,17,19-nonaen-16-one trifluoroacetate] | – | – | – | – | > 100 nM | > 100 nM | 56 nM | > 100 nM | – | IC50 ([4]; 90 μM ATP): 6180 nM
11 | O=C(Nc1ccc2cc1CCc1cccc(c1)Nc1ncc(Cl)c(n1)N2)C1CCCN(C(=O)Nc2ccccc2)C1 (stereo not shown) [Example A50, N(3)-[6-Chloro-2,4,8,22-tetraazatetracyclo[14.3.1.1(3,7).1(9,13)]docosa-1(20),3(22),4,6,9(21),10,12,16,18-nonaen-12-yl]-N(1)-phenylpiperidine-1,3-dicarboxamide trifluoroacetate] | – | – | – | – | 2.4 nM | 21 nM | 6.5 nM | 13 nM | 37% | –
12 | NC(=O)N1CCN(c2cc(-c3cc4cc(c3)Nc3ncc(Cl)c(n3)Nc3cccc(c3)OCC4)ccn2)CC1 [Example D39, 4-{4-[6-Chloro-14-oxa-2,4,8,23-tetraazatetracyclo[15.3.1.1(3,7).1(9,13)]tricosa-1(21),3(23),4,6,9(22),10,12,17,19-nonaen-19-yl]pyridin-2-yl}piperazine-1-carboxamide bis(trifluoroacetate)] | – | – | – | – | – | – | – | – | – | IC50 ([1]; Table D1): 0.5 nM; IC50 (TYK2; Table D1): 1.8 nM; IC50 ([2]; Table D1): 0.5 nM; IC50 ([3]; Table D1): 6.4 nM; IC50 ([4]; Table D1, 90 μM ATP): 91 nM
13 | CC(=O)N1CCC(CC(=O)Nc2ccc3cc2CCc2cncc(c2)Nc2ncc(Cl)c(n2)N3)CC1 [Example A76, 2-(1-Acetylpiperidin-4-yl)-N-[6-chloro-2,4,8,18,22-pentaazatetracyclo[14.3.1.1(3,7).1(9,13)]docosa-1(20),3(22),4,6,9(21),10,12,16,18-nonaen-12-yl]acetamide bis(trifluoroacetate)] | – | – | – | – | 2 nM | 3.9 nM | 4.1 nM | 124 nM | 21% | –
14 | O=C(Nc1ccc2cc1CCc1cccc(c1)Nc1ncc(Cl)c(n1)N2)c1cnc2ccccc2n1 [Example B72, N-[6-Chloro-2,4,8,22-tetraazatetracyclo[14.3.1.1(3,7).1(9,13)]docosa-1(20), 3(22),4,6,9(21),10,12,16,18-nonaen-12-yl]quinoxaline-2-carboxamide bis(trifluoroacetate)] | 200 nM | 77 nM | 55 nM | > 500 nM | – | – | – | – | – | ALK % of inhibition at a concentration of 500 nM or 1 mM [4, 10]: 12%
15 | CC(C)(C)c1ccccc1NC(=O)Nc1ccc2cc1CCc1cccc(c1)Nc1ncc(Cl)c(n1)N2 [Example B110, N-(2-tert-Butylphenyl)-N′-[6-chloro-2,4,8,22-tetraazatetracyclo[14.3.1.1(3,7).1(9,13)]docosa-1(20),3(22),4,6,9(21),10,12,16,18-nonaen-12-yl]urea trifluoroacetate] | 4.3 nM | 15 nM | 5.2 nM | 92 nM | – | – | – | – | – | ALK % of inhibition at a concentration of 500 nM or 1 mM [4, 10]: 7.1%
16 | Clc1cnc2nc1Nc1cccc(c1)COCc1cccc(c1)N2 [Example D21, 6-Chloro-15-oxa-2,4,8,23-tetraazatetracyclo[15.3.1.1(3,7).1(9,13)]tricosa-1(21),3(23),4,6,9(22),10,12,17,19-nonaene trifluoroacetate] | – | – | – | – | – | – | – | – | – | IC50 ([1]; Table D1): 8.1 nM; IC50 (TYK2; Table D1): 27 nM; IC50 ([2]; Table D1): 13 nM; IC50 ([3]; Table D1): 45 nM; IC50 ([4]; Table D1, 90 μM ATP): 984 nM
17 | O=[N+]([O-])c1ccc(CN2CCN(Cc3cc4cc(c3)Nc3nc(ncc3Cl)Nc3cccc(c3)CC4)CC2)cc1 [Example B194, 6-Chloro-11-{[4-(4-nitrobenzyl)piperazin-1-yl]methyl}-2,4,8,22-tetraazatetracyclo[14.3.1.1(3,7).1(9,13)]docosa-1(20),3(22),4,6,9(21),10,12,16,18-nonaene tris(trifluoroacetate)] | 36 nM | 251 nM | 12 nM | 108 nM | – | – | – | – | – | IC50 [4, 5]: > 1000 nM
